The results in this text go back to patent publication US12410164B2, “Heterocyclic compounds and medical use thereof” (FONDAZIONE TELETHON, priority 2018, dated 2025).

The target of the assay is F508del-CFTR (Homo sapiens, UniProt P13569, DEL508-508). The assay is described as follows: Analysis of F508del-CFTR localization by immunofluorescence in CFBE41o− cells. Type of assay: cell-based. The arrangement: expressed in transfected cells; host or cells: CFBE41o- cells with expression of F508del-CFTR and HS-YFP (generated as in Sondo et al. 2011). The conditions noted are these: compound 10 μM plus VX-809 1 μM, 24 hr. How it is done: CFBE41o− cells were seeded in a 12-well μ-chamber (81201, Ibidi) at a density of 25.000 cells per well and treated with compounds for 24 hr. Cells were then rinsed with PBS and fixed by adding 100 μl per well of 10% neutral buffered formalin for 5 minutes at room temperature. After 3 washes with 300 μl of PBS, cells were permeabilized with PBS-Triton X-100 0.3% for 5 min, blocked with PBS-BSA 1% for 2 hr, and incubated overnight at 4° C. with 100 μl of primary antibody diluted in blocking solution. The CFTR antibody was ab570 mouse IgG1 (University of North Carolina at Chapel Hill, and Cystic Fibrosis Foundation Therapeutics, see Cui L, et al. J. Mol Biol 2007, 365, 981-994) diluted at 1:250. Following incubation with primary antibody, cells were rinsed three times with PBS and incubated with 100 μl of a solution of secondary goat anti-mouse Alexa Fluor-546 antibodies (Invitrogen A-11030) diluted in PBS-BSA 1% for 1 hour in the dark. After three further washes in PBS, cells were covered with mounting medium and coverslip, and then analysed using a laser-scanning confocal microscope SPE (Leica Microsystems).
As a second type of experiment, the localization of F508del-CFTR protein was evaluated by immunofluorescence. Cells were treated with compounds, then fixed and immunostained with antibodies against CFTR. Images were taken with a confocal microscope.

Chain of F508del-CFTR (P13569 with tags, fused parts or gaps DEL508-508): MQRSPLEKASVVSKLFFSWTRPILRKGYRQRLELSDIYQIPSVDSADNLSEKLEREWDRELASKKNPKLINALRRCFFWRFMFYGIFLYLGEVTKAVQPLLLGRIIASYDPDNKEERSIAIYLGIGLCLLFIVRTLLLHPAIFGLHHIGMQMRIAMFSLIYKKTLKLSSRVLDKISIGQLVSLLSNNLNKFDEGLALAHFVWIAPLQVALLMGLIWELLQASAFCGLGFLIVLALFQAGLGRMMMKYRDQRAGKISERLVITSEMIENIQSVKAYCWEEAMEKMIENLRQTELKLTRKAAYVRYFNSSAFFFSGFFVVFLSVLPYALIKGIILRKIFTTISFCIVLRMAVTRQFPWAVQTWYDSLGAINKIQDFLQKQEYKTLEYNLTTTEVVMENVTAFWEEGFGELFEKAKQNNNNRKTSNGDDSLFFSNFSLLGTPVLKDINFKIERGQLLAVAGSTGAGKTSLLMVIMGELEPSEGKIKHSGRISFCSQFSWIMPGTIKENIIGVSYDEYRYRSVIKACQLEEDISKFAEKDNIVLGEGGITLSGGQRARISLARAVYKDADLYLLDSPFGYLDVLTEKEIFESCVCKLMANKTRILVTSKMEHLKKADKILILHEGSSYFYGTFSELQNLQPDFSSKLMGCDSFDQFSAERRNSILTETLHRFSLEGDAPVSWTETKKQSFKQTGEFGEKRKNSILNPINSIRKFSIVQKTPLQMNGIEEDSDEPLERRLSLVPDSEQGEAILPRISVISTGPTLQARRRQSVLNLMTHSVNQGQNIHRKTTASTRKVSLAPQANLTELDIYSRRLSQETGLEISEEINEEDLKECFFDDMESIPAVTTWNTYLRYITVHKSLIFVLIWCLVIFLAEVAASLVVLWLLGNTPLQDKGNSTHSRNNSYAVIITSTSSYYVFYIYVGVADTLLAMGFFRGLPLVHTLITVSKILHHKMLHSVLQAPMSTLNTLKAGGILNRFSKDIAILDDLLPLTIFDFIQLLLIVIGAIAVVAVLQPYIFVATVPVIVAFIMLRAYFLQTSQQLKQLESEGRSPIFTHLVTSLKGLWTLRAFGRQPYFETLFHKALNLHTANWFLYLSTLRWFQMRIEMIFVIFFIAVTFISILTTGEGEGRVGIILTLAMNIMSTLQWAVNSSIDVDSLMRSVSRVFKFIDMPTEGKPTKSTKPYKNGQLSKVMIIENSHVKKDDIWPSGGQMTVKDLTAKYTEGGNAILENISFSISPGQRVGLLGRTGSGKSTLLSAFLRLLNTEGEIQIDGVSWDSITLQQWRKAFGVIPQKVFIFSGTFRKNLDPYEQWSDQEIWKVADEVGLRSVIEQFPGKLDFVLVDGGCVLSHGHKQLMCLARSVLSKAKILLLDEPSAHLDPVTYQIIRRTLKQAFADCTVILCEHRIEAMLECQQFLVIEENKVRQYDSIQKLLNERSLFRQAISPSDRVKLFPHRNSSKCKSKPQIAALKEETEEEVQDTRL

Take `CCOC(=O)c1c(Br)c2c(n1Cc1cccc(C)c1)-c1[nH]c(=O)c(S(=O)(=O)c3ccccc3)cc1CC2` [PP028, Ethyl 3-bromo 1-(3-methylbenzyl)-8-oxo-7-(phenylsulfonyl)-4,5,8,9-tetrahydro-1H-pyrrolo[3,2-h]quinoline-2-carboxylate]: the F508del-CFTR localization entry is “cause appearance of F508del-CFTR at the cell periphery”.
